Assay results reported in patent US4968609A, “Coryneform bacteria carrying recombinant DNA and a process for producing aromatic amino acids using said bacteria” (priority 1984, dated 1990).

What was measured:
[1] = system: 3-deoxy-D-arabinoheptulonic acid-7-phosphate synthetase (DS) of Brevibacterium lactofermentum AJ 12181(AJ 12036/pAR-1); assay: DS activity of crude enzyme solution with amino acids added, strain AJ 12181 (AJ 12036/pAR-1); details: 1 mM each; crude enzyme of AJ 12181 (AJ 12036/pAR-1); activity with none added = 100%
[2] = system: 3-deoxy-D-arabinoheptulonic acid-7-phosphate synthetase (DS) of Brevibacterium lactofermentum AJ 12036; assay: DS activity of crude enzyme solution with amino acids added, strain AJ 12036; details: 1 mM each; crude enzyme of AJ 12036; activity with none added = 100%
[3] = system: 3-deoxy-D-arabinoheptulonic acid-7-phosphate synthetase (DS) of Brevibacterium lactofermentum AJ 11957; assay: DS activity of crude enzyme solution with amino acids added, strain AJ 11957; details: 1 mM each; crude enzyme of AJ 11957; activity with none added = 100%
[4] = system: 3-deoxy-D-arabinoheptulonic acid-7-phosphate synthetase (DS) of Brevibacterium lactofermentum AJ 12182(AJ 12036/pAR-2); assay: DS activity of crude enzyme solution with amino acids added, strain AJ 12182 (AJ 12036/pAR-2); details: 1 mM each; crude enzyme of AJ 12182 (AJ 12036/pAR-2); activity with none added = 100%
[5] = system: Brevibacterium lactofermentum AJ 12036 transformed with pAR-1 and pAR-2; assay: Sensitivity of retransformants to m-fluorophenylalanine; type: cell-based; details: 50 chloramphenicol-resistant retransformants of AJ 12036 with pAR-1 and pAR-2
Procedure: After culturing at 30° C. for 2 weeks, about 25000 colonies resistant to chloramphenicol appeared, which were replicated in minimal medium (which contained 2% of glucose, 1% of ammonium sulfate, 0.3% of urea, 0.1% of KH2 PO4, 0.04% of MgSO4 ·7H2 O, 2 ppm of iron ions, 2 ppm of manganese ions, […] of thiamine hydrochloride, 50 μg/ml of biotin, 500 μg/ml of m-fluorophenylalanine and 10 μg/ml of chloramphenicol, pH 7.0, 1.8% of agar) to obtain 5 strains resistant to chloramphenicol and m-fluorophenylalanine.
In order to confirm that the gene was present on the recombinant plasmid carrying the DNA fragment, Brevibacterium lactofermentum AJ 12036 was again transformed using the plasmids pARl and pAR-2.
Clearly the genes imparting the m-fluorophenylalanine resistance were present on the above-described plasmids.

Row | SMILES | Residual Activity When Each Amino Acid Was Added [1] [%] | Residual Activity When Each Amino Acid Was Added [2] [%] | Residual Activity When Each Amino Acid Was Added [3] [%] | Residual Activity When Each Amino Acid Was Added [4] [%] | sensitivity to m-fluorophenylalanine [5]
1 | N[C@@H](Cc1ccccc1)C(=O)O [Phenylalanine, phenylalanine] | 112 | 94 | 107 | 99 | 
2 | N[C@@H](Cc1ccc(O)cc1)C(=O)O [Tyrosine, tyrosine] | 109 | 51 |  | 88 | 
3 | N[C@@H](Cc1cccc(F)c1)C(=O)O [m-fluorophenylalanine] |  |  |  |  | All of the strains demonstrated m-fluorophenylalanine resistance
